From patent US9006241B2, “Pyrimidine derivatives” (Noviga Research AB, priority 2011, dated 2015)

Each compound was assayed on CCRF-CEM cancer cells - leukemia (assay: Fluorometric Microculture Cytotoxicity Assay (FMCA), CCRF-CEM). Details: Homo sapiens, 72 h incubation.
Type: cell-based
From the text: The Fluorometric Microculture Cytotoxicity Assay, FMCA (Larsson, R., et al.; Anticancer Res, 1989, 9, 1111-1119), is a three day non-clonogenic microplate-based cell viability assay used for measurement of the cytotoxic and/or cytostatic effect of compounds in vitro (Lindhagen, E. et al.; Nat. Protoc., 2008, 3, 1364-1369). FMCA represents a valuable method to measure cytotoxicity in a number of cell types, both cell lines and primary cells from patients (Larsson, R., et al.; Int. J. Cancer, 1992, 50, 177-185; Fridborg, H., et al.; Eur. J. Cancer, 1999. 35, 424-432; Dhar, S., et al.; Br. J. Cancer, 1996, 74, 888-896).
FMCA is based on the principle that fluorescein diacetate (FDA) is converted to the fluorescent probe fluorescein by esterases in the plasma membranes of living cells. For experiments, 96 or 384-well microplates are prepared with compounds and stored at −70° C. until use. Cells are then seeded into the drug-prepared plates and placed in an incubator for 72 h. On the last day of incubation, the plates are washed and a buffer containing FDA is added and incubated with the cells for 45 minutes. Finally the fluorescence per well is measured in a fluorometer and a Survival Index % (SI) for each compound-treated well is calculated with the equation: Compound-treated cells minus blank divided by control cells minus blank. A high SI-value indicates a large percentage of living cells and vice versa.
In subsequent experiments, compounds were tested, along with a number of approved cancer drugs (dasatinib, pazopanib, sorafenib, and sunitinib) as described above. Initially, the acute lymphoblastic leukemia cell line CCRF-CEM was used throughout. In the assay plates, medium was added to six empty wells (blank wells) and wells were filled with PBS and cell suspension and served as control wells. SI-values were then calculated for each compound-treated well as described above. All experiments were conducted twice and a new batch of plates was prepared for each experiment.
For dose-response experiments, 384-well plates were prepared as follows:
Compounds of the invention as well comparative kinase inhibitors sorafenib sunitinib, dasatinib, pazopanib and a reference compound disclosed in WO 2009/071535 (compound #107) were diluted with PBS to a concentration ten-times higher than the desired starting concentration. Then, a Biomek 2000 liquid handling system was employed to serially dilute the compounds in a deep-well 384-well plate. From this plate, assay plates containing 5 μl compound per well were prepared with the Biomek 2000. Certain compounds precipitated when diluted with PBS, and these compounds were therefore prepared in a 96-well plate manually as described above using culture medium RPMI 1640 instead of PBS.
The compounds were also tested at five concentrations, with five times serial dilution on the following cell types: CCRF-CEM, hTERT-RPE1 (normal retinal epithelial cells), hRPTEpiC (normal renal cells), and peripheral blood mononuclear cells (PBMC). Each experiment was performed three times, except for PBMC and hRPTEpiC, which were performed twice. SI-values were calculated, graphs were plotted using GraphPadPrism 5.0 (GraphPad Software Inc. La Jolla, Calif.) and IC50-values for each cell type and compound were determined from the curves.
With COc1ccc2[nH]c(C)c(CCNc3nc(C)cc(Nc4ccc5[nH]c(C)cc5c4)n3)c2c1 [Example 56, N^2-[2-(5-methoxy-2-methyl-1H-indol-3-yl)ethyl]-6-methyl-N^4-(2-methyl-1H-indol-5-yl)pyrimidine-2,4-diamine] the EC50 was 130 nM. For COc1ccc2[nH]cc(CCNc3nc(C)cc(Nc4ccc5[nH]c(C)nc5c4)n3)c2c1 [Example 57, N^2-[2-(5-methoxy-1H-indol-3-yl)ethyl]-6-methyl-N^4-(2-methyl-1H-benzo[d]imidazol-5-yl)pyrimidine-2,4-diamine], the EC50 was 230 nM. In the case of CCOc1ccc2[nH]cc(CCNc3nc(C)cc(Nc4ccc5[nH]c(C)nc5c4)n3)c2c1 [Example 58, N^2-[2-(5-ethoxy-1H-indol-3-yl)ethyl]-6-methyl-N^4-(2-methyl-1H-benzo[d]imidazol-5-yl)pyrimidine-2,4-diamine], the EC50 is reported as 170 nM. In the case of COc1ccc2[nH]cc(CCN(C)c3nccc(Nc4ccc5[nH]c(CO)cc5c4)n3)c2c1 [Example 59, [5-(2-{[2-(5-methoxy-1H-indol-3-yl)ethyl][methyl]amino}pyrimidin-4-ylamino)-1H-indol-2-yl]methanol], the EC50 is reported as 1000 to 10000 nM. Compound COc1ccc2[nH]cc(CCNc3nccc(Nc4ccc5c(c4)nc(CO)n5C)n3)c2c1 [Example 60, (5-{2-[2-(5-methoxy-1H-indol-3-yl)ethylamino]pyrimidin-4-ylamino}-1-methyl-1H-benzo[d]imidazol-2-yl)methanol] has an EC50 of 210 nM. For COc1ccc2[nH]cc(CCNc3nccc(N(C)c4ccc5[nH]c(C)cc5c4)n3)c2c1 [Example 61, N^2-[2-(5-methoxy-1H-indol-3-yl)ethyl]-N^4-methyl-N^4-(2-methyl-1H-indol-5-yl)pyrimidine-2,4-diamine], the EC50 was 1000 to 10000 nM. For COc1ccc2[nH]cc(CCNc3nccc(N(C)c4ccc5c(c4)cc(C)n5C)n3)c2c1 [Example 62, N^4-(1,2-dimethyl-1H-indol-5-yl)-N^2-[2-(5-methoxy-1H-indol-3-yl)ethyl]-N^4-methylpyrimidine-2,4-diamine], the EC50 was 1000 to 10000 nM. CCOc1ccc2[nH]cc(CCNc3nccc(Nc4ccc5[nH]c(CO)cc5c4)n3)c2c1 [Example 72, [5-({2-[2-(5-ethoxy-1H-indol-3-yl)ethylamino]pyrimidin-4-yl}amino)-1H-indol-2-yl]methanol] gave an EC50 of under 100 nM. COc1ccc2[nH]cc(CCNc3nccc(Nc4ccc5cc(C)[nH]c5c4)n3)c2c1 [Example 73, N^2-[2-(5-methoxy-1H-indol-3-yl)ethyl]-N^4-(2-methyl-1H-indol-6-yl)pyrimidine-2,4-diamine] showed an EC50 of under 100 nM. Compound CCOc1ccc2[nH]cc(CCNc3nccc(Nc4ccc5cc(C)[nH]c5c4)n3)c2c1 [Example 74, N^2-[2-(5-ethoxy-1H-indol-3-yl)ethyl]-N^4-(2-methyl-1H-indol-6-yl)pyrimidine-2,4-diamine] has an EC50 of under 100 nM. Compound COc1ccc2[nH]cc(CCNc3nccc(Nc4ccc5ccn(C)c5c4)n3)c2c1 [Example 75, N^2-[2-(5-methoxy-1H-indol-3-yl)ethyl]-N^4-(1-methylindol-6-yl)pyrimidine-2,4-diamine] has an EC50 of under 1000 nM. With CCOc1ccc2[nH]cc(CCNc3nccc(Nc4ccc5ccn(C)c5c4)n3)c2c1 [Example 76, N^2-[2-(5-ethoxy-1H-indol-3-yl)ethyl]-N^4-(1-methylindol-6-yl)pyrimidine-2,4-diamine] the EC50 was under 1000 nM. COc1ccc2[nH]cc(CCNc3nccc(Nc4cccc5[nH]c(C)cc45)n3)c2c1 [Example 77, N^2-[2-(5-methoxy-1H-indol-3-yl)ethyl]-N^4-(2-methyl-1H-indol-4-yl)pyrimidine-2,4-diamine] gave an EC50 of under 100 nM. With CCOc1ccc2[nH]cc(CCNc3nccc(Nc4cccc5[nH]c(C)cc45)n3)c2c1 [Example 78, N^2-[2-(5-ethoxy-1H-indol-3-yl)ethyl]-N^4-(2-methyl-1H-indol-4-yl)pyrimidine-2,4-diamine] the EC50 was under 100 nM. Cn1ccc2c(Nc3ccnc(NCCc4c[nH]c5ccc(O)cc45)n3)cccc21 [Example 79, 3-[2-({4-[(1-methylindol-4-yl)amino]pyrimidin-2-yl}amino)ethyl]-1H-indol-5-ol] showed an EC50 of under 1000 nM. Work on CCOc1ccc2[nH]cc(CCNc3nccc(Nc4cccc5c4ccn5C)n3)c2c1 [Example 80, N^2-[2-(5-ethoxy-1H-indol-3-yl)ethyl]-N^4-(1-methylindol-4-yl)pyrimidine-2,4-diamine] yielded an EC50 of under 100 nM. COc1ccc2[nH]cc(CCNc3nccc(Nc4cccc5c4cc(C)n5C)n3)c2c1 [Example 81, N^4-(1,2-dimethylindol-4-yl)-N^2-[2-(5-methoxy-1H-indol-3-yl)ethyl]pyrimidine-2,4-diamine] was tested, and the EC50 was under 100 nM. COc1ccc2[nH]cc(CCNc3nccc(Nc4cccc5[nH]c(C)nc45)n3)c2c1 [Example 82, N^2-[2-(5-methoxy-1H-indol-3-yl)ethyl]-N^4-(2-methyl-1H-benzimidazol-4-yl)pyrimidine-2,4-diamine] was tested, and the EC50 was under 1000 nM. With CCOc1ccc2[nH]cc(CCNc3nccc(Nc4cccc5[nH]c(C)nc45)n3)c2c1 [Example 83, N^2-[2-(5-ethoxy-1H-indol-3-yl)ethyl]-N^4-(2-methyl-1H-benzimidazol-4-yl)pyrimidine-2,4-diamine] the EC50 was under 1000 nM. With COc1ccc2[nH]cc(CCNc3ccnc(Nc4cccc5c4ccn5C)n3)c2c1 [Example 84, N^4-[2-(5-methoxy-1H-indol-3-yl)ethyl]-N^2-(1-methylindol-4-yl)pyrimidine-2,4-diamine] the EC50 was under 100 nM. In the case of CCOc1ccc2[nH]cc(CCNc3nc(Nc4ccc5[nH]c(C)cc5c4)cc(C(N)=O)n3)c2c1 [Example 85, 2-[2-(5-ethoxy-1H-indol-3-yl)ethylamino]-6-[(2-methyl-1H-indol-5-yl)amino]pyrimidine-4-carboxamide], the EC50 is reported as under 100 nM. COc1ccc2[nH]cc(CCNc3nc(Nc4ccc5c(c4)nc(C)n5C)cc(C(N)=O)n3)c2c1 [Example 86, 6-[(1,2-dimethylbenzimidazol-5-yl)amino]-2-[2-(5-methoxy-1H-indol-3-yl)ethylamino]pyrimidine-4-carboxamide] was tested, and the EC50 was under 1000 nM. COc1ccc2[nH]cc(CCNc3nc(Nc4cccc5c4ccn5C)cc(C(N)=O)n3)c2c1 [Example 87, 2-[2-(5-methoxy-1H-indol-3-yl)ethylamino]-6-[(1-methylindol-4-yl)amino]pyrimidine-4-carboxamide] was tested, and the EC50 was under 100 nM. With CCOc1ccc2[nH]cc(CCNc3nc(Nc4cccc5c4ccn5C)cc(C(N)=O)n3)c2c1 [Example 88, 2-[2-(5-ethoxy-1H-indol-3-yl)ethylamino]-6-[(1-methylindol-4-yl)amino]pyrimidine-4-carboxamide] the EC50 was under 100 nM. COc1ccc2[nH]cc(CCNc3nc(Nc4cccc5c4ccn5C)cc(N4CCN(C)CC4)n3)c2c1 [Example 89, N^2-[2-(5-methoxy-1H-indol-3-yl)ethyl]-N^4-(1-methylindol-4-yl)-6-(4-methylpiperazin-1-yl)pyrimidine-2,4-diamine] was tested, and the EC50 was under 1000 nM. Compound CCOc1ccc2[nH]cc(CCNc3ncc(N)c(Nc4ccc5[nH]c(C)cc5c4)n3)c2c1 [Example 90, N^2-[2-(5-ethoxy-1H-indol-3-yl)ethyl]-N^4-(2-methyl-1H-indol-5-yl)pyrimidine-2,4,5-triamine] has an EC50 of under 100 nM. For CNC(=O)c1cc(Oc2ccc(NC(=O)Nc3ccc(Cl)c(C(F)(F)F)c3)cc2)ccn1 [Ref. 1, sorafenib, reference compound], the EC50 was 8300 nM. In the case of Cc1nc(Nc2ncc(C(=O)Nc3c(C)cccc3Cl)s2)cc(N2CCN(CCO)CC2)n1 [Ref. 3, dasatinib, reference compound], the EC50 is reported as 9700 nM. Cc1ccc(Nc2nccc(N(C)c3ccc4c(C)n(C)nc4c3)n2)cc1S(N)(=O)=O [Ref. 4, pazopanib, reference compound] was tested, and the EC50 was 25900 nM.
